Measured values: US8575119B2, “2′-chloroacetylenyl substituted nucleoside derivatives” (Enanta Pharmaceuticals, Inc., priority 2011, dated 2013)
pEC50: −log10 of the molar value.

Key:
HCV 1a genotype replicon = test: HCV replicon assay, qRT-PCR, genotype 1a (Huh-1a7 replicon cell line); format: cell-based, HCV (strain H77; details: Hepatitis C virus; Genotype-1a replicon, HCV RNA by qRT-PCR normalized to GAPDH RNA
Source text: (§1) HCV replicon cell lines (kindly provided by R. Bartenschlager) isolated from colonies as described by Lohman et al. (Lohman et al. (1999) Science 285: 110-113, expressly incorporated by reference in its entirety) and used for all experiments. One of the HCV replicon cell lines (strain Conl, genotype 1b) has the nucleic acid sequence set forth in EMBL Accession No.: AJ242651, the coding sequence of which is from nucleotides 1801 to 8406. Another replicon cell line (strain H77, genotype 1a) was constructed as described by Yi et. al. (Yi et. al. (2004) Journal of Virology 78(15):7904-15). The coding sequences of the published HCV replicons were synthesized and subsequently assembled in plasmids using standard molecular biology techniques.
(§2) One replicon cell line (“SGR 11-7”) stably expresses HCV replicon RNA, genotype 1b, which consists of (i) the HCV 5′UTR fused to the first 12 amino acids of the capsid protein, (ii) the neomycin phosphotransferase gene (neo), (iii) the IRES from encephalomyocarditis virus (EMCV) and (iv) HCV […] to NS5B genes and the HCV 3′UTR. Another replicon cell line (“Huh-1a7”) described by Yi et. al. (Yi et. al. (2004) Journal of Virology 78(15):7904-15, expressly incorporated by reference in its entirety) stably expresses HCV replicon RNA, genotype 1a, which consists of (i) the HCV 5′UTR fused to the first 12 amino acids of the capsid protein, (ii) the HIV tat protein, (iii) the neomycin phosphotransferase gene (neo), (iv) the IRES from encephalomyocarditis virus (EMCV) and (vi) HCV NS3 to NS5B genes that harbor cell culture adaptive mutations (Q1067R, K1691R, S2204I) and the HCV 3′UTR.
(§3) These cell lines are maintained at 37° C., 5% CO2, 100% relative humidity in DMEM (Cat#11965-084, Invitrogen), with 10% fetal calf serum (“FCS”, Invitrogen), 1% non-essential amino acids (Invitrogen), 1% of Glutamax (Invitrogen), 1% of 100× penicillin/streptomycin (Cat#15140-122, Invitrogen) and Geneticin (Cat#10131-027, Invitrogen) at 0.75 mg/ml or 0.25 mg/ml for 11-7 and Huh-1a7 cells, respectively.
(§4) EC50 values of single agent compounds were determined by HCV RNA detection using quantitative RT-PCR, according to the manufacturer's instructions, with a TAQMAN® One-Step RT-PCR Master Mix Reagents Kit (Cat#AB 4309169, Applied Biosystems) on an ABI Model 7500 thermocycler. EC50 values of combinations are similarly determined by HCV RNA detection using quantitative RT-PCR. The TAQMAN primers to use for detecting and quantifying HCV RNA obtained from Integrated DNA Technologies. HCV RNA is normalized to GAPDH RNA levels in drug-treated cells, which is detected and quantified using the Human GAPDH Endogenous Control Mix (Applied Biosystems, AB 4310884E). Total cellular RNA is purified from 96-well plates using the RNAqueous 96 kit (Ambion, Cat#AM1812). Chemical agent cytotoxicity is evaluated using an MTS assay according to the manufacturer's directions (Promega).
(§5) The compounds of the present invention can be effective against the HCV 1a and 1b genotypes. It should also be understood that the compounds of the present invention can inhibit multiple genotypes of HCV. In one embodiment, compounds of the present invention are active against the 1a, 1b, 2a, 2b, 3a, 4a, and 5a genotypes. […] EC50 ranges against HCV 1a or 1b are as follows: A>1 μM; B 0.1-1 μM; C<0.1 μM.

HCV 1b genotype replicon = test: HCV replicon assay, qRT-PCR, genotype 1b (SGR 11-7 replicon cell line); format: cell-based, HCV (strain Conl; details: Hepatitis C virus; Genotype-1b replicon, HCV RNA by qRT-PCR normalized to GAPDH RNA
Source text: as §1, §2, §3, §4, §5

CCCCCOC(=O)[C@H](C)NP(=O)(OC[C@H]1O[C@@H](n2ccc(=O)[nH]c2=O)[C@@](O)(C#CCl)C1O)Oc1cccc2ccccc12 (some centres unmarked) [Example 7]
pEC50 (HCV 1a genotype replicon): 6.00 to 7.00
pEC50 (HCV 1b genotype replicon): 6.00 to 7.00

C[C@H](NP(=O)(OC[C@H]1O[C@@H](n2ccc(=O)[nH]c2=O)[C@@](O)(C#CCl)C1O)Oc1cccc2ccccc12)C(=O)OC1CCCC1 (some centres unmarked) [Example 9]
pEC50 (HCV 1a genotype replicon): 6.00 to 7.00
pEC50 (HCV 1b genotype replicon): 6.00 to 7.00

COC(=O)[C@H](C)NP(=O)(OC[C@H]1O[C@@H](n2ccc(=O)[nH]c2=O)[C@@](O)(C#CCl)C1O)Oc1cccc2ccccc12 (some centres unmarked) [Example 2]
pEC50 (HCV 1a genotype replicon): 6.00 to 7.00
pEC50 (HCV 1b genotype replicon): 6.00 to 7.00

O=c1ccn([C@@H]2O[C@H](CO)C(O)C2(O)C#CCl)c(=O)[nH]1 (some centres unmarked) [Example 1]
pEC50 (HCV 1a genotype replicon): < 6.00
pEC50 (HCV 1b genotype replicon): < 6.00

CC(C)OC(=O)[C@H](C)NP(=O)(OC[C@H]1O[C@@H](n2ccc(=O)[nH]c2=O)[C@@](O)(C#CCl)C1O)Oc1cccc2ccccc12 (some centres unmarked) [Example 8]
pEC50 (HCV 1a genotype replicon): 6.00 to 7.00
pEC50 (HCV 1b genotype replicon): < 6.00

C[C@H](N[P@@](=O)(OC[C@H]1O[C@@H](n2ccc(=O)[nH]c2=O)[C@@](O)(C#CCl)C1O)Oc1cccc2ccccc12)C(=O)OCC(C)(C)C (some centres unmarked) [Example 3]
pEC50 (HCV 1a genotype replicon): 6.00 to 7.00
pEC50 (HCV 1b genotype replicon): 6.00 to 7.00

C[C@H](N[P@](=O)(OC[C@H]1O[C@@H](n2ccc(=O)[nH]c2=O)[C@@](O)(C#CCl)C1O)Oc1cccc2ccccc12)C(=O)OCC(C)(C)C (some centres unmarked) [Example 4]
pEC50 (HCV 1a genotype replicon): > 7.00
pEC50 (HCV 1b genotype replicon): > 7.00

C[C@H](NP(=O)(OC[C@H]1O[C@@H](n2ccc(=O)[nH]c2=O)[C@@](O)(C#CCl)C1O)Oc1cccc2ccccc12)C(=O)OCc1ccccc1 (some centres unmarked) [Example 6]
pEC50 (HCV 1a genotype replicon): 6.00 to 7.00
pEC50 (HCV 1b genotype replicon): 6.00 to 7.00

CCCCOC(=O)[C@H](C)NP(=O)(OC[C@H]1O[C@@H](n2ccc(=O)[nH]c2=O)[C@@](O)(C#CCl)C1O)Oc1cccc2ccccc12 (some centres unmarked) [Example 5]
pEC50 (HCV 1a genotype replicon): 6.00 to 7.00
pEC50 (HCV 1b genotype replicon): 6.00 to 7.00

C[C@H](NP(=O)(OC[C@H]1O[C@@H](n2ccc(=O)[nH]c2=O)C(O)(C#CCl)C1O)Oc1cccc2ccccc12)C(=O)OC1CCCCC1 (some centres unmarked) [Example 10]
pEC50 (HCV 1a genotype replicon): < 6.00
pEC50 (HCV 1b genotype replicon): < 6.00
